Data taken from patent publication US12606528B2, “Methods and materials for inhibiting NF-kB activity” (University of Pittsburgh - Of the Commonwealth System of …, priority 2019, dated 2026).
Like-named read-outs stand apart in the source and are kept apart here.

Legend:
NF-κB = NF-κB assay: THP1-NF-κB-LUC cells, LPS-stimulated secreted luciferase; format: cell-based; settings: THP1-NF-κB-LUC cells, read-out: IC50 (NF-κB assay)
How it was run: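 THP1-NF-κB-LUC cells (25k/well) were pretreated with compounds for 2 h, then stimulated with LPS (10 ng/mL) for 18 h. Secreted luciferase was measured and normalized to vehicle, and IC50 was fitted from the concentration series.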

TNF release = assay: TNF assay: TNF release from LPS-stimulated human PBMCs (TNF ELISA); format: cell-based; settings: PBMC, read-out: IC50 (TNF assay)
How it was run: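 Human PBMCs at 10k/well pretreated with compound dilutions 2 h, then stimulated with LPS (10 ng/mL) for 18 h. TNF in supernatants quantified by ELISA; IC50 for inhibition of TNF release fitted from concentration–response.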

[1] = LPS-stimulated human PBMCs, TNF ELISA
[2] = compounds 2 hours before LPS (10 ng/mL) for 18 hours, secreted luciferase
[3] = human PBMCs, compounds 2 hours before LPS (10 ng/ml) for 18 hours, supernatant TNF ELISA

| SMILES | IC50 (NF-κB; LPS-stimulated) [µM] | IC50 (TNF release; [1]) [µM] | IC50 (NF-κB; [2]) [µM] | IC50 (TNF release; [3]) [µM] |
| --- | --- | --- | --- | --- |
| O=C(c1ccc2nc(-c3ccc(F)cc3)c(-c3ccc(F)cc3)nc2c1)N1CCN(CCO)CC1 [BC19513] | < 0.1 | > 10 | – | – |
| O=C(c1ccc2nc(-c3ccc(F)cc3)c(-c3ccc(F)cc3)nc2c1)N1CCN(CCOCCO)CC1 [BC19514] | 0.1 to 1 | 1 to 10 | – | – |
| O=c1[nH]ccc2cc([S+]([O-])c3ccc(Cl)cc3)ccc12 (stereo not shown) [BC19515] | – | – | > 10 | > 10 |
| O=c1[nH]ccc2cc(S(=O)(=O)c3ccc(Cl)cc3)ccc12 [BC19516] | – | – | > 10 | > 10 |
| Cc1ccc([S+]([O-])c2ccc3c(=O)[nH]ccc3c2)cc1 (stereo not shown) [BC19517] | – | – | > 10 | > 10 |
| Cc1ccc(S(=O)(=O)c2ccc3c(=O)[nH]ccc3c2)cc1 [BC19518] | – | – | > 10 | > 10 |
| O=c1[nH]ccc2cc([S+]([O-])c3cccc(F)c3)ccc12 (stereo not shown) [BC19519] | – | – | > 10 | > 10 |
| O=c1[nH]ccc2cc(S(=O)(=O)c3cccc(F)c3)ccc12 [BC19520] | – | – | > 10 | > 10 |
| CCCS(=O)(=O)c1oc(-c2ccccc2)nc1S(=O)(=O)c1ccc(Cl)cc1 [BC19521] | < 0.1 | 0.1 to 1 | – | – |
| CS(=O)(=O)c1[nH]c(-c2ccccc2)nc1S(=O)(=O)c1ccc(F)cc1 [BC19522] | 1 to 10 | > 10 | – | – |
| CC(C)[S+]([O-])c1[nH]c(-c2ccccc2)nc1S(=O)(=O)c1ccc(F)cc1 (stereo not shown) [BC19523] | 1 to 10 | > 10 | – | – |
| COCC[S+]([O-])c1[nH]c(-c2ccccc2)nc1S(=O)(=O)c1ccc(F)cc1 (stereo not shown) [BC19524] | > 10 | > 10 | – | – |
| O=S(=O)(CC1CC1)c1sc(-c2ccccc2)nc1S(=O)(=O)c1ccc(Cl)cc1 [BC19525] | 1 to 10 | 1 to 10 | – | – |
| COCC[S+]([O-])c1sc(-c2ccccc2)nc1S(=O)(=O)c1ccc(Cl)cc1 (stereo not shown) [BC19526] | 1 to 10 | 1 to 10 | – | – |
| COCCS(=O)(=O)c1sc(-c2cccc(F)c2)nc1S(=O)(=O)c1ccc(Cl)cc1 [BC19527] | 1 to 10 | 1 to 10 | – | – |
| C[S+]([O-])c1sc(-c2ccc(Cl)cc2)nc1S(=O)(=O)c1ccc(Cl)cc1 (stereo not shown) [BC19528] | 1 to 10 | 0.1 to 1 | – | – |

| SMILES | IC50 (NF-κB; LPS-stimulated) [µM] | IC50 (TNF release; [1]) [µM] | IC50 (NF-κB; [2]) [µM] | IC50 (TNF release; [3]) [µM] |
| --- | --- | --- | --- | --- |
| CC(C)CS(=O)(=O)c1sc(-c2ccc(Cl)cc2)nc1S(=O)(=O)c1ccc(Cl)cc1 [BC19529] | > 10 | 1 to 10 | – | – |
| O=S(=O)(CC1CC1)c1sc(-c2ccc(Cl)cc2)nc1S(=O)(=O)c1ccc(Cl)cc1 [BC19530] | 1 to 10 | 1 to 10 | – | – |
| CCC[S+]([O-])c1sc(-c2cccc(F)c2)nc1S(=O)(=O)c1ccc(Cl)cc1 (stereo not shown) [BC19531] | 1 to 10 | 0.1 to 1 | – | – |
| O=S(=O)(c1ccc(Cl)cc1)c1nc(-c2cccc(F)c2)sc1[S+]([O-])C1CCCCC1 (stereo not shown) [BC19532] | > 10 | > 10 | – | – |
| CCC[S+]([O-])c1sc(-c2ccc(Cl)cc2)nc1S(=O)(=O)c1ccc(Cl)cc1 (stereo not shown) [BC19533] | 1 to 10 | 1 to 10 | – | – |
| CS(=O)(=O)c1sc(-c2ccc(Cl)cc2)nc1S(=O)(=O)c1ccc(F)cc1 [BC19534] | 1 to 10 | 1 to 10 | – | – |
| CCC[S+]([O-])c1sc(-c2ccc(Cl)cc2)nc1S(=O)(=O)c1ccc(F)cc1 (stereo not shown) [BC19535] | 1 to 10 | 1 to 10 | – | – |
| CCCS(=O)(=O)c1sc(-c2ccc(Cl)cc2)nc1S(=O)(=O)c1ccc(F)cc1 [BC19536] | 1 to 10 | 0.1 to 1 | – | – |
| CC(C)[S+]([O-])c1sc(-c2ccc(Cl)cc2)nc1S(=O)(=O)c1ccc(F)cc1 (stereo not shown) [BC19537] | > 10 | > 10 | – | – |
| CC(C)S(=O)(=O)c1sc(-c2ccc(Cl)cc2)nc1S(=O)(=O)c1ccc(F)cc1 [BC19538] | 1 to 10 | 1 to 10 | – | – |
| O=S(=O)(CC1CC1)c1sc(-c2ccc(Cl)cc2)nc1S(=O)(=O)c1ccc(F)cc1 [BC19539] | 1 to 10 | 1 to 10 | – | – |
| COCC[S+]([O-])c1sc(-c2ccc(Cl)cc2)nc1S(=O)(=O)c1ccc(F)cc1 (stereo not shown) [BC19540] | 1 to 10 | 1 to 10 | – | – |
| COCCS(=O)(=O)c1sc(-c2ccc(Cl)cc2)nc1S(=O)(=O)c1ccc(F)cc1 [BC19541] | 1 to 10 | 1 to 10 | – | – |
| O=S1(=O)CCn2c(-c3ccccc3)nc(S(=O)(=O)c3ccc(F)cc3)c21 [BC19542] | > 10 | > 10 | – | – |
| Cc1ccc(S(=O)(=O)c2nc(S(=O)(=O)C(C)C)sc2S(=O)(=O)C(C)C)cc1 [BC19543] | 0.1 to 1 | < 0.1 | – | – |
| CCS(=O)(=O)c1cc2c(c(S(=O)(=O)Nc3ccc(C)c(Cl)c3)c1)OCC(=O)N2 [BC19544] | – | – | < 0.1 | > 10 |
